US11305024B2, “Cross-linked polymer modified nanoparticles” (OREGON HEALTH & SCIENCE UNIVERSITY, priority 2015, dated 2022)

What was measured:
[1] = tested on: HCC1954; conditions: in vitro and/or in mice; cited from earlier work
[2] = tested on: Platelet-rich plasma; experiment: Platelet aggregation assay; set-up: species or system human; conditions: monitored for three minutes; 1× and 5×
Experimental: Platelet-rich plasma (PRP) was obtained following centrifugation of isolated blood (diluted in 3.2% sodium citrate, 1:10). The isolated blood was centrifuged at 200 g for 20 minutes. The supernatant (which contains PRP) was collected and maintained at room temperature prior to treatment. Following a 1-min incubation at 37° C. (baseline), reactions were initiated by addition of nanoparticle (70 or 350 μg/mL) or collagen related peptide (CRP; 100 μg/ml) and monitored for three minutes for optical density via an aggregometer (Chrono-log Corp).

[3] = tested on: luciferase; experiment: Luciferase silencing by siLUC-loaded nanoconstructs in LM2-4luc+/H2N cells; format: cell-based; conditions: 13-130 nM GALA, 15 nM siRNA, NP/siRNA 50, non-cross-linked PEI, 2 days
Experimental: The LM2-4luc+/H2N cell line (over-expressing luciferase and HER2; J. M. du Manoir et al., 2006) was used for initial assessment of the nanoparticles for gene silencing efficacy when delivering siRNA against luciferase (siLUC). Cells were plated at 3000 cells/well in a 96-well plate. One day after seeding, cells were treated with siLUC-nanoparticles. The nanoparticles were loaded with siLUC at NP/siRNA ratio of 25 or 50 by mass. […] The commercially available transfection agent, DharmaFECT™ (Dharmacon, Lafayette, Colo.), with the same siLUC dose served as a positive control. Non-targeting or scrambled siRNA (siSCR) was used throughout as a negative control. After overnight incubation (−20 hours), cells were washed once to remove the nanoconstructs and replenished with a complete media. At 48 hours post-treatment, cells were lysed and analyzed for luciferase activity by the Luciferase Glow Assay Kit (Thermo Fisher Scientific, Waltham, Mass.) and protein concentration by the BCA protein assay kit (Thermo Fisher Scientific), following manufacturer's protocols. Luciferase activity of the lysate was normalized with the corresponding protein concentration in the same well and reported as a percentage of the untreated or siSCR controls. All treatments were performed with replicates.

[4] = tested on: HCC1954; experiment: Screening of siRNA in combination with paclitaxel, cell viability; format: cell-based; conditions: for Cell Viability (% of Scramble Control): 30 nM siRNA; for Enhanced Paclitaxel effect due to gene knockdown: over paclitaxel alone
Experimental: (§1) Cells were first treated with 30 nM siRNAs (and commercial DharmaFECT™) followed by 5 nM paclitaxel treatment 24 hours later. Cell viability was determined 3 days later. […] In short, knocking down HER2 had the greatest impact on paclitaxel toxicity in BT474 (having highest HER2 level). […] The effect of paclitaxel combined with siAKT1/BCL2 or siEPS8L1 was also significant. The best enhancement by siAKT1/BCL2 (38-41%) appeared to be with basal cells, HCC1954, BT549, and HCC70. EPS8L1 is involved in EGFR signaling and functions in cell migration.

[5] = tested on: HCC70; experiment: as above; format: cell-based; conditions: for Cell Viability (% of Scramble Control): 30 nM siRNA; for Enhanced Paclitaxel effect due to gene knockdown: over paclitaxel alone
Experimental: as §1

[6] = tested on: BT549; experiment: as above; format: cell-based; conditions: for Cell Viability (% of Scramble Control): 30 nM siRNA; for Enhanced Paclitaxel effect due to gene knockdown: over paclitaxel alone
Experimental: as §1

[7] = tested on: BT474; experiment: as above; format: cell-based; conditions: for Cell Viability (% of Scramble Control): 30 nM siRNA; for Enhanced Paclitaxel effect due to gene knockdown: over paclitaxel alone
Experimental: as §1

[8] = tested on: SKBR3; experiment: as above; format: cell-based; conditions: for Cell Viability (% of Scramble Control): 30 nM siRNA; for Enhanced Paclitaxel effect due to gene knockdown: over paclitaxel alone
Experimental: as §1

[9] = Serum protection assay (siRNA in 50% human serum); format: in vitro ADME; conditions: 37° C.
Experimental: siRNA-nanoparticles were incubated with 50 v/v % human serum in PBS for a specified period of time (0, 0.5, 1, 2, 4, 8, 24, and 48 hours) at 37° C. under continuous shaking. At the end of each time point, the sample was mixed with proteinase K (200 μg/mL) and frozen at −80° C. to stop the enzymatic reaction. For the analysis, samples were thawed and mixed with 1.0 wt. % SDS in order to release siRNA from the nanoparticles. The sample was then mixed with an equal amount of 2× loading buffer and loaded into a 15% TBE-urea gel (BioRad). The gel ran at 100 V for the first 20 minutes and 150 V for another hour. The gel was then stained with SyBR Gold (Life Technologies) following the manufacturer's protocol and viewed in a UV chamber. The band intensity was analyzed by ImageJ software (National Institutes of Health, Bethesda, Md.). The fraction of intact siRNA was reported as a function of time that the siRNA-nanoparticles were in 50% serum.

[10] = tested on: HER2+ cell lines; experiment: Growth inhibition by siHER2 in a panel of HER2+ cell lines; format: cell-based; conditions: 19 out of 20 HER2+ cell lines; read-out: dose of the siHER2 required to inhibit cell growth by 50% (G150)
[11] = tested on: basal cells, HCC1954, BT549, and HCC70; experiment: Screening of siRNA in combination with paclitaxel, basal cells as a group; format: cell-based
Experimental: as §1

[12] = tested on: Red blood cells; experiment: Hemolysis; format: cell-based, human; conditions: 4 hours, 37° C.; nanoparticle 70 or 350 μg/mL (1× or 5×)
Experimental: Nanoparticles were tested at 1× and 5× of the intended human blood level. Studies of blood compatibility were performed following or with minor modification from the Nanotechnology Characterization Laboratory's (Frederick, Md.) published protocols.
Human blood was collected in the presence of EDTA, and serum was removed. Red blood cells were suspended at 1×10^9 cells per mL and exposed to nanoparticle (final concentrations of 70 or 350 μg/mL for 1× or 5×, respectively) for 4 hours and 37° C. Following centrifugation, absorbance of hemoglobin in the supernatants (at 542 nm) was measured and used to quantify percent hemolysis.

[13] = metastatic solid tumor patients; cited from earlier work
[14] = HCC1954 (HER2 positive, basal), DharmaFECT, paclitaxel −
[15] = HCC1954, then 5 nM paclitaxel 24 hours later (paclitaxel +)
[16] = HCC70 (triple negative, basal), DharmaFECT, paclitaxel −
[17] = HCC70, then 5 nM paclitaxel 24 hours later (paclitaxel +)
[18] = BT549 (triple negative, basal), DharmaFECT, paclitaxel −
[19] = BT549, then 5 nM paclitaxel 24 hours later (paclitaxel +)
[20] = BT474 (HER2 positive, luminal), DharmaFECT, paclitaxel −
[21] = BT474, then 5 nM paclitaxel 24 hours later (paclitaxel +)
[22] = SKBR3 (HER2 positive, luminal), DharmaFECT, paclitaxel −
[23] = SKBR3, then 5 nM paclitaxel 24 hours later (paclitaxel +)

Compound: N.N.[Cl][Pt][Cl] [cisplatin]
- resistance of HCC1954 [1]: resistant

Compound: collagen related peptide
- platelet aggregation [2]: triggered aggregation immediately

Compound: GALA
- effect of co-loaded peptide on silencing efficacy [3]: clearly enhanced silencing efficacy of the nanoconstructs

Compound: siHER2: siRNA against HER2, SEQ ID NO. 1 and 2 (chain 1 CACGUUUGAGUCCAUGCCCAAUU; chain 2 UUGGGCAUGGACUCAAACGUGUU; listed as RNA, chemistry not given here)
- Cell Viability (% of Scramble Control) [4, 14]: 68%
- Cell Viability (% of Scramble Control) [4, 15]: 49%
- Enhanced Paclitaxel effect due to gene knockdown ([4]; HCC1954): 6%
- Cell Viability (% of Scramble Control) [5, 16]: 76%
- Cell Viability (% of Scramble Control) [5, 17]: 49%
- Enhanced Paclitaxel effect due to gene knockdown ([5]; HCC70): 21%
- Cell Viability (% of Scramble Control) [6, 18]: 51%
- Cell Viability (% of Scramble Control) [6, 19]: 40%
- Enhanced Paclitaxel effect due to gene knockdown ([6]; BT549): 19%
- Cell Viability (% of Scramble Control) [7, 20]: 35%
- Cell Viability (% of Scramble Control) [7, 21]: 26%
- Enhanced Paclitaxel effect due to gene knockdown ([7]; BT474): 32%
- Cell Viability (% of Scramble Control) [8, 22]: 51%
- Cell Viability (% of Scramble Control) [8, 23]: 33%
- Enhanced Paclitaxel effect due to gene knockdown ([8]; SKBR3): 6%
- half-life [9]: about 1 hour
- time within which siHER2 was degraded ([9]; without nanoparticles): ≤ 0.5 h
- IC50 [10]: < 5 nM

Compound: siSCR: non-targeting or scrambled siRNA control, SEQ ID NO. 5 and 6 (chain 1 UGGUUUACAUGUCGACUAA; chain 2 UUAGUCGACAUGUAAACCA; listed as RNA, chemistry not given here) [reference compound]
- Cell Viability (% of Scramble Control) [4, 15]: 55%
- Cell Viability (% of Scramble Control) [5, 17]: 70%
- Cell Viability (% of Scramble Control) [6, 19]: 59%
- Cell Viability (% of Scramble Control) [7, 21]: 58%
- Cell Viability (% of Scramble Control) [8, 23]: 39%

Compound: siAKT1/BCL2: dual-targeting siRNA duplex, one strand targets AKT1, the other BCL2, SEQ ID NO. 7 and 8 (chain 1 AUUCAGUUUCACAUUGCUUGGUGAC; chain 2 GUCACCAAGAACUGUGACACAGAAGGG; listed as RNA, chemistry not given here)
- best enhancement of paclitaxel effect [11]: 38-41%
- Cell Viability (% of Scramble Control) [4, 14]: 47%
- Cell Viability (% of Scramble Control) [4, 15]: 17%
- Enhanced Paclitaxel effect due to gene knockdown ([4]; HCC1954): 38%
- Cell Viability (% of Scramble Control) [5, 16]: 42%
- Cell Viability (% of Scramble Control) [5, 17]: 29%
- Enhanced Paclitaxel effect due to gene knockdown ([5]; HCC70): 41%
- Cell Viability (% of Scramble Control) [6, 18]: 54%
- Cell Viability (% of Scramble Control) [6, 19]: 23%
- Enhanced Paclitaxel effect due to gene knockdown ([6]; BT549): 36%
- Cell Viability (% of Scramble Control) [7, 20]: 74%
- Cell Viability (% of Scramble Control) [7, 21]: 39%
- Enhanced Paclitaxel effect due to gene knockdown ([7]; BT474): 19%
- Cell Viability (% of Scramble Control) [8, 22]: 77%
- Cell Viability (% of Scramble Control) [8, 23]: 29%
- Enhanced Paclitaxel effect due to gene knockdown ([8]; SKBR3): 10%

Compound: Triton-X
- hemolysis of red blood cells [12]: complete blood lysis

Compound: [SH-].[SH-].[S]=[Mo]=[S] [tetrathiomolybdate]
- treated patients with mild copper deficiency who achieved stable disease [13]: five out of six

Compound: pertuzumab
- resistance of HCC1954 [1]: resistant
